According to the supplement of paper PMC13380429:

Columns and labels:
Conditions in all cases: 72 h
Caco-2 [1] = experiment: relative viability EC50 (midpoint between 100% and the lowest measured viability); higher = less toxic
HepG2 [2] = experiment: as above
U2OS [3] = experiment: as above
Calu-3 [4] = experiment: as above
Vero E6 [5] = experiment: as above
Caco-2 [6] = experiment: drug sensitivity score (DSS) for viability; higher = more toxic; extreme values may be limits of the assay
HepG2 [7] = experiment: as above
U2OS [8] = experiment: as above
Calu-3 [9] = experiment: as above
Vero E6 [10] = experiment: as above
Caco-2 [11] = experiment: cell viability relative to DMSO; higher = less toxic
HepG2 [12] = experiment: as above
U2OS [13] = experiment: as above
Calu-3 [14] = experiment: as above
Vero E6 [15] = experiment: as above

Structure (SMILES)	relative viability EC50 (Caco-2 [1]) [nM]	relative viability EC50 (HepG2 [2]) [nM]	relative viability EC50 (U2OS [3]) [nM]	relative viability EC50 (Calu-3 [4]) [nM]	relative viability EC50 (Vero E6 [5]) [nM]	drug sensitivity score (Caco-2 [6])	drug sensitivity score (HepG2 [7])	drug sensitivity score (U2OS [8])	drug sensitivity score (Calu-3 [9])	drug sensitivity score (Vero E6 [10])	cell viability (Caco-2 [11]; 1 nM) [%]	cell viability (Caco-2 [11]; 10 nM) [%]	cell viability (Caco-2 [11]; 100 nM) [%]	cell viability (Caco-2 [11]; 1000 nM) [%]	cell viability (Caco-2 [11]; 10000 nM) [%]	cell viability (HepG2 [12]; 1 nM) [%]	cell viability (HepG2 [12]; 10 nM) [%]	cell viability (HepG2 [12]; 100 nM) [%]	cell viability (HepG2 [12]; 1000 nM) [%]	cell viability (HepG2 [12]; 10000 nM) [%]	cell viability (U2OS [13]; 1 nM) [%]	cell viability (U2OS [13]; 10 nM) [%]	cell viability (U2OS [13]; 100 nM) [%]	cell viability (U2OS [13]; 1000 nM) [%]	cell viability (U2OS [13]; 10000 nM) [%]	cell viability (Calu-3 [14]; 1 nM) [%]	cell viability (Calu-3 [14]; 10 nM) [%]	cell viability (Calu-3 [14]; 100 nM) [%]	cell viability (Calu-3 [14]; 1000 nM) [%]	cell viability (Calu-3 [14]; 10000 nM) [%]	cell viability (Vero E6 [15]; 1 nM) [%]	cell viability (Vero E6 [15]; 10 nM) [%]	cell viability (Vero E6 [15]; 100 nM) [%]	cell viability (Vero E6 [15]; 1000 nM) [%]	cell viability (Vero E6 [15]; 10000 nM) [%]
COc1cc(CN(CCN)C(=O)c2cccs2)ccc1OCc1ccccc1 [M8-B]	> 10000	> 10000	> 10000	> 10000	> 10000	0.1	0	0	0	0	89.5	98.4	101	95.6	89.1	99.8	96.5	91.1	110	96.2	95.1	97.6	102	95.7	95.4	103	89.1	108	99.7	98.5	94.8	94.1	97.2	98	102
C=CCn1c(=O)c2cnc(Nc3ccc(N4CCN(C)CC4)cc3)nc2n1-c1cccc(C(C)(C)O)n1 [MK-1775]	399	466	490	218	981	12.4	13.8	14.7	13.1	9.7	106	99.4	96.1	35.4	25.9	99	89.5	91.2	33.3	10.2	102	95.7	97.6	21.3	5.8	108	93.4	70.8	50.9	28.8	100	94.7	94.1	57.4	14.2
O=C(O)Cn1nnc(-c2cc(N3CCC(Oc4cc(F)ccc4Br)CC3)no2)n1 [MK-8245]	> 10000	> 10000	> 10000	> 10000	> 10000	0	2.2	0	0	0.1	101	106	99.5	102	94.8	109	95.8	88.3	88.8	76.1	103	102	96.2	101	98.6	102	108	97.7	90.8	96.5	98.3	94.8	98.8	92.2	86.3
c1ccc(-c2ccc(CNc3nc(-c4ccccn4)nnc3-c3ccccc3)cc2)cc1 [ML228]	692	484	685	818	338	11.2	12.5	12.8	10.7	16.9	104	98.2	89.3	49.5	13.6	91.4	104	103	31.4	21	100	99.1	94.3	38.8	3.6	96	102	101	48.6	17.5	93.1	92.3	97	9.5	4.5
